Measured values taken from patent publication EP0622358A1, “Phenylglycinamides of 4-imidazolylmethyl-phenyl-acetic acids and their use against hypertension and atherosclerosis” (BAYER AG, priority 1993, dated 1994).

Test system: glatte Muskelzellen
Test: Inhibition of proliferation of smooth muscle cells (3H-thymidine incorporation)
Format: cell-based, Ratten
Settings: half-maximal inhibition of thymidine incorporation induced by 10% FCS; rat aortic smooth muscle cells; read-out: IC₅₀
Description: Untersuchung zur Inhibition der Proliferation glatter Muskelzellen durch die erfindungsgemäßen Verbindungen
Zur Feststellung der antiproliferativen Wirkung der Verbindungen werden glatte Muskelzellen verwendet, die aus den Aorten von Ratten durch die Media-Explantat-Technik gewonnen werden [R. Ross, J. Cell. Biol. 50, 172, 1971]. Die Zellen werden in geeigneten Kulturschalen, in der Regel 96-Loch-Platten, ausgesät und für 2 - 3 Tage in Medium 199 mit 7,5% FCS und 7,5% NCS, 2 mM L-Glutamin und 15 mM HEPES, pH 7,4 in 5% CO₂ bei 37°C kultiviert. Danach werden die Zellen durch Serumentzug für 2 - 3 Tage synchronisiert und sodann mit Serum zum Wachstum angeregt. Gleichzeitig werden Testverbindungen zugesetzt. Nach 16 - 20 Stunden wird 1 µCi ³H-Thymidin zugefügt und nach weiteren 4 Stunden der Einbau dieser Substanz in die TCA-präzipitierbare DNA der Zellen bestimmt Zur Bestimmung der IC₅₀₋Werte wird die Wirkstoffkonzentration errechnet, die bei sequentieller Verdünnung des Wirkstoffes halbmaximale Hemmung der durch 10% FCS hervorgerufene Thymidininkorporation bewirkt. Tabelle B

| SMILES | IC50 [nM] |
| --- | --- |
| CCCCc1nc(Cl)c(CO)n1Cc1ccc(C(C(=O)NC(C(N)=O)c2ccccc2)C2CCCC2)cc1 (centres unmarked) [Beispiel 6, 2-{2-[4-(2-Butyl-4-chlor-5-hydroxymethyl-imidazol-1-yl-methyl)phenyl]-2-cyclopentyl}acetamido-2-phenyl-acetamid] | 0.2 |
| CCCCc1nc(Cl)c(C=O)n1Cc1ccc(C(C(=O)NC(C(N)=O)c2ccccc2)C2CCCC2)cc1 (centres unmarked) [Beispiel 1, 2-{2-[4-(2-Butyl-4-chlor-5-formyl-imidazol-1-yl-methyl)phenyl]-2-cyclopentyl}-acetamido-2-phenyl-acetamid] | 1 |
